Reference: US7700628B2, “Aromatic ether derivatives useful as thrombin inhibitors” (Eli Lilly and Company, priority 2004, dated 2010)
Counter-ions that a name gives are not always drawn.

Assays:
[1] = molecular target: human thrombin (Homo sapiens, UniProt P00734); assay: Kass determination, chromogenic substrate hydrolysis, thrombin; type: biochemical; details: apparent association constant, mean value; set range given with 'or greater'
Method: (§1) The inhibition by a compound of the invention of a serine protease of the human blood coagulation system or of the fibrinolytic system, as well as of trypsin, is determined in vitro for the particular enzyme by measuring its inhibitor binding affinity in an assay in which the enzyme hydrolyzes a particular chromogenic substrate, for example as described in Smith, G. F.; Gifford-Moore, D.; Craft, T. J.; Chirgadze, N.; Ruterbories, K. J.; Lindstrom, T. D.; Satterwhite, J. H. Efegatran: A New Cardiovascular Anticoagulant. New Anticoagulants for the Cardiovascular Patient; Pifarre, R., Ed.; Hanley & Belfus, Inc.: Philadelphia, 1997; pp. 265-300. The inhibitor binding affinity is measured as apparent association constant Kass which is the hypothetical equilibrium constant for the reaction between enzyme and the test inhibitor compound (I).
(§2) [formula] [formula] Conveniently, enzyme inhibition kinetics are performed in a high-volume protocol using automated dilutions of inhibitors (n=3 for each of four to eight inhibitor concentrations) into 96-well polystyrene plates and reaction rates are determined from the rate of hydrolysis of appropriate p-nitroanilide substrates at 405 nm using a Thermomax plate reader from Molecular Devices (San Francisco, Calif.). The same general protocol is followed for all enzymes studied: In each well is placed 50 μL buffer (0.06 M Tris, 0.3 M NaCl, pH 7.4), followed by 25 μL of inhibitor solution (in 100 % methanol) and 25 μL enzyme solution (e.g., human factor Xa, 32 nM in 0.03 M Tris, 0.15 M NaCl, 1 mg/mL HAS); finally, within two minutes, 150 μL aqueous solution of chromogenic substrate (e.g., 0.3 mM BzIle-Glu-Gly-Arg-pNA) is added to start the enzymatic reaction. Final factor Xa concentration is 3.2 nM. The rates of chromogenic substrate hydrolysis reactions provide a linear relationship with the enzymes studied such that free enzyme can be quantitated in reaction mixtures. Data is analyzed directly as rates by the Softmax program to produce [free enzyme] calculations for tight-binding Kass determinations. For apparent Kass determinations, human factor Xa is used to hydrolyze BzIle-Glu-Gly- Arg-pNA (SEQ ID NO: 1); 5.9 nM human thrombin is used to hydrolyze 0.2 mM BzPhe-Val-Arg-pNA; 3.4 nM human plasmin is used with 0.5 mM HD-Val-Leu-Lys-pNA; 1.2 nM human nt-PA is used with 0.8 mM HD-Ile-Pro-Arg-pNA; and 0.4 nM urokinase is used with 0.4 mM pyro-Glu-Gly-Arg-pNA.
(§3) Kass is calculated for a range of concentrations of test compounds which produce hydrolysis inhibition of between 20% and 80% of control and the mean value reported in units of liter per mole. […] For example, the respective Kass values as to factor Xa/thrombin for Examples 41, 60, 106, 115, 1403 and 1414 are 407/16.9, 430/4.2, 3630/308, 3013/40 and 3630/308×10^6 L/mole.

[2] = molecular target: T1, human factor Xa (Homo sapiens, UniProt P00742); assay: Kass determination, chromogenic substrate hydrolysis, factor Xa; type: biochemical; details: apparent association constant, mean value; set range given with 'or greater'
T1 construct: enzyme solution (e.g., human factor Xa, 32 nM in 0.03 M Tris, 0.15 M NaCl, 1 mg/mL HAS)
T1 sequence (P00742 235-488 limits assumed): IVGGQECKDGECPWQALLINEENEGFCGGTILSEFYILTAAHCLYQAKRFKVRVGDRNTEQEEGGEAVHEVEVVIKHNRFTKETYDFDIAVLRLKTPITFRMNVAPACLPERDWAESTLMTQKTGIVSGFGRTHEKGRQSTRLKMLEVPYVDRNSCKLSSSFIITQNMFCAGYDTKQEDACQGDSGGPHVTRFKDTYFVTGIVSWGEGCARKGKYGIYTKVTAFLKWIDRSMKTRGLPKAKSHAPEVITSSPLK
T1 sequence (P00742 41-179 partner limits assumed): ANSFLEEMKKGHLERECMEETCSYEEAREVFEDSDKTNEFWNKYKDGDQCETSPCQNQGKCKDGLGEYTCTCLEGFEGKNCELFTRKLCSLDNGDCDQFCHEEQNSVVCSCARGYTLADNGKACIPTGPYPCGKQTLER
Method: as §1, §2, §3

Compound: NCCOc1cc(N2CCOCC2)ccc1C(=O)Nc1ccc(F)cc1C(=O)Nc1ccc(Cl)cn1 [Example 41, 2-[2-(2-Aminoethoxy)-4-(morpholin-4-yl)benzoylamino]-N-(5-chloro-pyridin-2-yl)-5-fluorobenzamide Trifluoroacetate]
- Kass for thrombin (factor IIa) [1]: 1.69e+07 L/mol
- Kass for factor Xa [2]: 4.07e+08 L/mol

Compound: CC(C)(C)c1ccc(CNc2ccc(Cl)cc2C(=O)Nc2ccc(Cl)cn2)c(OC2CCNCC2)c1 [Example 56, 2-[4-(tert-Butyl)-2-(piperidin-4-yloxy)benzylamino]-5-chloro-N-(5-chloropyridin-2-yl)benzamide]
- melting point: 153.6 to 154.5 °C

Compound: CC(C)(C)c1ccc(CNc2ccccc2C(=O)Nc2ccc(Cl)cn2)c(OC2CCNCC2)c1 [Example 59, 2-[4-(tert-Butyl)-2-(piperidin-4-yloxy)benzylamino]-N-(5-chloro-pyridin-2-yl)benzamide]
- melting point: 169 to 170 °C

Compound: CC(C)(N)c1ccc(C(=O)Nc2ccccc2C(=O)Nc2ccc(Cl)cn2)c(OC2CCNCC2)c1 [Example 60, 2-[4-(1-Amino-1-methyl)ethyl-2-(piperidin-4-yloxy)benzoylamino]-N-(5-chloropyridin-2-yl)benzamide Bis(trifluoroacetate)]
- Kass for thrombin (factor IIa) [1]: 4.2e+06 L/mol
- Kass for factor Xa [2]: 4.3e+08 L/mol

Compound: CSc1ccc(C(=O)Nc2ccc(Cl)cc2C(=O)Nc2ccc(Cl)cn2)c(OCCCN)c1 [Example 106, 2-[2-(3-Aminopropoxy)-4-(methylthio)benzoylamino]-5-chloro-N-(5-chloropyridin-2-yl)benzamide]
- Kass for thrombin (factor IIa) [1]: 3.08e+08 L/mol
- Kass for factor Xa [2]: 3.63e+09 L/mol

Compound: NCCCOc1cc(N2CCOCC2)ccc1C(=O)Nc1ccc(F)cc1C(=O)Nc1ccc(Cl)cn1 [Example 115, 2-[2-(3-Aminopropoxy)-4-(morpholin-4-yl)benzoylamino]-N-(5-chloropyridin-2-yl)-5-fluorobenzamide]
- Kass for thrombin (factor IIa) [1]: 4e+07 L/mol
- Kass for factor Xa [2]: 3.013e+09 L/mol
